# “Also recorded” adds a separate entry of the source.
# Key:
# normal murine astrocytes = assay: MTT cell viability, normal murine astrocytes; format: cell-based; details: 5 μM, 24 hour treatment
# [1] = test system: normal human astrocyte (HA) cells; assay: MTT cell viability, normal human astrocytes; format: cell-based; details: 5 μM, 24 hour treatment
# 43RG32 cells = assay: Western blotting of mitophagy markers, 43RG32 cells; format: cell-based, human
# Method: (§1) FIG. 10 is a composite gel image of Western blot analysis of extracts from non-cancerous human astrocytes (HA), 43RG32 and U118 cells treated with 0 micromolar (0 μM) or 5 μM LCL-768. The effects of LCL-768 on LC3-II activation, aconitase 2 (ACO2) degradation, and dynamin-related GTPase (Drp1) dephosphorylation at […] were measured as markers of mitophagy (n=3).
# (§2) 43RG32 and U118 glioblastoma cells were treated with (+) or without (−) 5 micromolar (5 μM) LCL-768 and with (+) or without (−) the Drp1 inhibitor Mdivi-1. Actin was used as a loading control (n=3).
# (§3) Cellular lysates in radioimmunoprecipitation assay (RIPA) buffer containing a protease inhibitor cocktail (Sigma-Aldrich, St. Louis, Missouri, United States of America) were normalized by the total protein level and analyzed by sodium dodecyl sulfate-polyacrylamide gel electrophoresis (SDS-PAGE) and immunoblotting with corresponding antibodies. For immunoprecipitation, precleared cytosolic fractions were incubated overnight with 2 μg of corresponding antibodies at 4° C., followed by 1-hour incubation with Protein A/G Agarose (Santa Cruz Biotechnology, Inc., Dallas, Texas, United States of America) (50 μl of a 50% slurry). Resin was washed three to five times, and pulled-down proteins were analyzed by SDS-PAGE and Western blotting with corresponding antibodies.
# HNSCC-1A cells [2] = details: 1 and 2.5 μM, live HNSCC-1A cells
# HNSCC organoids [3] = details: ex vivo treatment, MALDI-Imaging
# Excerpt: (§4) To validate the clinical relevance of the activation of mitophagy, 2D organoids^4 were developed using tumor tissues obtained from a patient with HNSCC. […] The co-localization of GM130/Calnexin was used as a control.
# [4] = Maximum tolerated dose in SCID mice; format: in vivo
# HNSCC-1A cells [5] = assay: LC3B-II levels by Western blotting (autophagy); format: cell-based, human; details: 4 μM, 1.5 hours
# Method: LC3B-II levels were measured via Western blotting. Image-processing software was used to quantify the band intensity from the blots.
# as §3
# [6] = test system: murine glioblastoma (GL261) cells; details: 5 μM, 24 hour treatment
# HNSCC-1A cells [7] = assay: ACO2 levels by Western blotting (lethal mitophagy); format: cell-based, human; details: 4 μM, 48 hours
# Method: FIG. 6 is a graph showing levels of aconitase 2 (ACO2) (reported as normalized cumulative pixel intensity) in head and neck squamous cell carcinoma (HNSCC-1A) cells incubated with 4 micromolar (μM) concentrations of a pyridinium-substituted ceramide-based compound (LCL-461), the selenite conjugated salt of a pyridinium-substituted ceramide-based compound (LCL-768), or vehicle for 48 hours. ACO2 levels were measured via Western blotting. Image-processing software was used to quantify the band intensity from the blots.
# U118 cells = assay: Western blotting of mitophagy markers, U118 cells; format: cell-based, human
# Method: as §1, §2, §3
# HNSCC organoids [8] = assay: Ex vivo 2D HNSCC patient organoids, CerS1/Tom20 co-localization (mitophagy); format: cell-based, human; details: ex vivo treatment
# Excerpt: FIG. 14A is a series of microscopy images showing the H&E staining (top row) and fluorescence imaging of the co-localization of translocase of outer mitochondrial membrane 20 (Tom20) and CerS1 (as a measure of mitophagy, middle row) in two-dimensional (2D) organoids developed from a patient with head and neck squamous cell carcinoma (HNSCC) in response to treatment with vehicle, LCL-768, sodium selenite (SoSe), rapamycin, or cisplatin ex vivo. Co-localization of cis-Golgi matrix protein 130 kDa (GM130) and Calnexin was used as a negative control (bottom row).
# FIG. 14B is a graph showing the quantification of colocalization of Tom20 and CerS1 from the treated two-dimensional (2D) organoids described for FIG. 14A.
# as §4
# UM-SCC-1A cells [9] = assay: CYTO-ID mitophagy detection in UM-SCC-1A cells with shSCR or shLC3; format: cell-based, human
# HNSCC-1A cells [10] = assay: Confocal immunofluorescence, colocalization of ceramide and Tom20; format: cell-based, human; details: 1 μM or 4 μM, 1.5 hours, compared to vehicle and LCL-461
# UM-SCC-1A-xenografts = test system: UM-SCC-1A-xenografts
# Excerpt: Tumor volume (cubic millimeters (mm^3)) is provided for both […] mice and mice treated with vehicle as a control.
# HNSCC-IA cells = assay: Confocal immunofluorescence, colocalization of CerS1 and mitochondrial protein Tom20; format: cell-based, human; details: 1 μM, 3 hours
# Method: FIG. 3A is a series of confocal microscopy images of cells treated with 1 micromolar (1 μM) concentrations of a pyridinium-substituted ceramide-based selenium conjugated compound (LCL-768) or vehicle for 3 hours and labeled for Ceramide Synthase 1 (CerS1; top row), mitochondria (middle row) or both (bottom row).
# UM-SCC-22A (squamous carcinoma) cells (50,000 per well) were plated on glass coverslips in a six-well plate for 18 hours. Cells were fixed and permeabilized using 4% paraformaldehyde (20 min) and 0.1% Triton X-100 in 1× phosphate-buffered saline (PBS) (pH 7.4) for 10 min. The cells were then blocked with 1% bovine serum albumin (BSA)/PBS (pH 7.4) for 1 hour. […] Immunofluorescence was performed using a Leica TCS SP2 AOBS confocal microscope (Leica Microsystems, Wetzler, Germany), an Olympus FV10i microscope (Olympus Corporation, Tokyo, Japan) with 543- and 488-nm channels for visualizing green and red fluorescence, or a Zeiss LSM 880 NLO Quasar confocal/multiphoton microscope with a Fast Airyscan super-resolution detector (Carl Zeiss, AG, Oberkochen, Germany). […] At least three random fields were selected for image quantification.
# HNSCC-1A cells [11] = assay: ATP levels (lethal mitophagy); format: cell-based, human; details: 4 μM, 48 hours
# Method: FIG. 7 is a graph showing adenosine triphosphate (ATP) activity in head and neck squamous cell carcinoma (HNSCC-1A) cells incubated with 4 micromolar (μM) concentrations of a pyridinium-substituted ceramide-based compound (LCL-461), the selenite conjugated salt of a pyridinium-substituted ceramide-based compound (LCL-768), or vehicle for 48 hours. ATP levels in the samples were measured, and all samples were normalized to a standard curve and then to vehicle activity.
# [12] = test system: non-cancerous adjacent tissue organoids; assay: Ex vivo non-cancerous adjacent tissue organoids, mitophagy; format: cell-based, human; details: ex vivo treatment, same patient
# Excerpt: as §4
# HNSCC-1A cells [13] = assay: Cell death / MTT cell viability assay; format: cell-based, human
# human glioblastoma cells = details: 5 μM, 24 hour treatment, compared to LCL-461 or sodium selenite
# [14] = test system: non-cancerous human astrocytes (HA); details: 5 μM
# Method: as §1, §3
# [15] = test system: orthotopic GB U118-xenograft-derived tumor; assay: Orthotopic GB U118 xenograft in brains of SCID mice; format: in vivo; details: 1 mg/kg/day for 14 days, female SCID mice
# UM-SCC-1A cells [16] = assay: Subcellular accumulation by differential centrifugation and mass spectrometry; format: cell-based, human; details: 10 μM, 6-24 hours
# Method: FIG. 13D is a graph showing the subcellular accumulation of LCL-768 (10 micromolar (μM)) after 0, 3, 6, 9, or 24 hours in the nucleus, mitochondria and cytoplasm of human head and neck squamous cell carcinoma (HNSCC) cells (UM-SCC-1A cells) as measured by mass spectrometry/lipidomics after differential centrifugation.
# The effects of LCL-768 on mitophagy induction in UM-SCC-IA cells transfected stably with the shRNA against LC3B (shLC3) was studied and compared to controls (UM-SCC-1A cells transfected with a control shRNA, shSCR). […] The subcellular accumulation of LCL-768 was studied in the same cells. Nucleus, mitochondria and cytoplasm in LCL-768-treated cells were isolated by differential centrifugation and LCL-768 accumulation was measured by mass spectrometry. […] Thus, these studies further support mitochondrial accumulation and efficacy of LCL-768 in inducing mitophagy in UM-SCC-1A cells.
smiles,measurement,setting,value
"O=[Se](O)O [sodium selenite, reference compound]",cell death in mouse normal astrocytes,normal murine astrocytes,not induced
same,cell death in human normal astrocytes,[1],not induced
"CCCCCCCCCCCCCCCCCC(=O)N[C@@H](CO)[C@H](O)/C=C/CCCCCCCCC[n+]1ccccc1.CCCCCCCCCCCCCCCCCC(=O)N[C@@H](CO)[C@H](O)/C=C/CCCCCCCCC[n+]1ccccc1.O=[Se]([O-])[O-] [LCL-768, D-erythro-14-(1′-pyridinium)-N-octadecanoyl-sphingosine selenite]",ACO2 degradation (mitophagy),43RG32 cells; 5 μM,induced
same,LC-3B-II activation (autophagy marker),43RG32 cells; 5 μM,induced
same,time of exposure at which mitophagy is occurring,HNSCC-1A cells [2],≤ 90 min
same,endogenous C24-ceramide compared to controls,HNSCC organoids [3],decreased
same,maximum tolerated dose (MTD),[4],10 mg/kg
same,LC3B-II levels (autophagy),HNSCC-1A cells [5],increased LC3B-II levels
same,cell death in mouse normal astrocytes,normal murine astrocytes,not induced
same,cell death in human normal astrocytes,[1],not induced
same,autophagic cell death in mouse glioblastoma cells,[6],induced autophagic cell death in mouse glioblastoma cells at a higher level than either LCL-461 or sodium selenite
same,levels of ACO2 compared to vehicle (lethal mitophagy),HNSCC-1A cells [7],decreased levels
same,ACO2 degradation (mitophagy),U118 cells; 5 μM,induced
same,LC-3B-II activation (autophagy marker),U118 cells; 5 μM,induced
same,mitophagy (co-localization of CerS1 and Tom20) compared to vehicle-treated controls,HNSCC organoids [8],induced mitophagy
same,mitophagy induction in shSCR-controls,"UM-SCC-1A cells [9]; 10 μM, 6, 9 and 24 hours, UM-SCC-1A shSCR",highly induced mitophagy
same,mitophagy induction after knockdown of LC3,"UM-SCC-1A cells [9]; 10 μM, UM-SCC-1A shLC3",almost completely prevented
same,colocalization of ceramide and Tom20 (selenite-stress response),HNSCC-1A cells [10],increased colocalization
same,tumor growth compared to vehicle-treated mice,"UM-SCC-1A-xenografts; 10 mg/kg intraperitoneal every other day, 21 days, SCID mice",inhibited tumor growth significantly
same,"mitophagy in xenograft-derived tumors (ACO2, P-S637 Drp1, S-NO-Drp1)","UM-SCC-1A-xenografts; day 21, Western blotting",induction of mitophagy
same,accumulation in tumor vs adjacent non-tumorigenic tissues,"UM-SCC-1A-xenografts; day 21, mass spectrometry",higher tumor accumulation
same,colocalization of CerS1 and mitochondrial protein Tom20,HNSCC-IA cells,significant increase
same,levels of ATP compared to vehicle (lethal mitophagy),HNSCC-1A cells [11],decreased levels
same,mitophagy induction in non-cancerous adjacent tissue organoids,[12],did not affect mitophagy induction
same,IC50,HNSCC-1A cells [13]; 24 hours,~10 µM
same,IC50,HNSCC-1A cells [13]; 48 hours,~4 µM
same,autophagic cell death in human glioblastoma cells,human glioblastoma cells,induced autophagic cell death
same,ACO2 degradation (mitophagy),[14]; HA cells,not
same,LC-3B-II activation (autophagy marker),[14]; HA cells,not
same,"mitophagy (LC3-II activation, ACO2 degradation, Drp1 dephosphorylation as markers)",[14]; as stated in legend of FIG. 10,induces mitophagy
same,tumor growth in the brain (MRI) compared to controls,[15]; osmotic pump into brain tumor,remarkably reduced tumor growth
same,increase of survival post-treatment,"[15]; osmotic pump, vs vehicle",about 10 days
same,"subcellular accumulation (nucleus, mitochondria, cytoplasm)",UM-SCC-1A cells [16],largely accumulated in the mitochondria
"COc1cc(-n2c(=S)[nH]c3ccccc3c2=O)c(Cl)cc1Cl [Mdivi-1, reference compound]",effect of Drp1 inhibition on LCL-768-mediated ACO2 degradation / mitophagy,43RG32 cells; with 5 μM LCL-768,almost completely prevented; also recorded: prevents
same,effect of Drp1 inhibition on LCL-768-mediated ACO2 degradation / mitophagy,U118 cells; with 5 μM LCL-768,almost completely prevented; also recorded: prevents
"CCCCCCCCCCCCCCCCCC(=O)N[C@@H](CO)[C@H](O)/C=C/CCCCCCCCC[n+]1ccccc1.[Br-] [LCL-461, D-erythro-2-N-octadecanoyl-14-(1′-pyridinium)-sphingosine bromide, reference compound]",LC3B-II levels (autophagy),HNSCC-1A cells [5],increased LC3B-II levels
same,levels of ACO2 compared to vehicle (lethal mitophagy),HNSCC-1A cells [7],decreased levels
same,colocalization of ceramide and Tom20 (selenite-stress response),HNSCC-1A cells [10],does not cause a strong selenite-stress response
same,levels of ATP compared to vehicle (lethal mitophagy),HNSCC-1A cells [11],decreased levels
same,IC50,"HNSCC-1A cells [13]; Homo sapiens, 24 hours",~10 µM
same,IC50,"HNSCC-1A cells [13]; Homo sapiens, 48 hours",~4 µM
"N.N.[Cl][Pt][Cl] [cisplatin, reference compound]",mitophagy (co-localization of CerS1 and Tom20) compared to vehicle-treated controls,HNSCC organoids [8],induced mitophagy
same,mitophagy induction in non-cancerous adjacent tissue organoids,[12],did not affect mitophagy induction

# Reference: patent publication US12390490B2, “Sphingolipid-based selenium compounds, methods for their preparation, and pharmaceutical uses thereof, including as antitumor agents” (MUSC FOUNDATION FOR RESEARCH DEVELOPMENT, priority 2019, dated 2025)
